Experimental data reported in the supplement of paper PMC10627819.

Experiments:
Assay in all cases: fitness (endpoint OD595 vs no drug) (fraction); higher = more growth
[1] = tested on: S. pneumoniae D39V
Procedure, shortened: (§1)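 Each well of a 384-well plate received 30 µl of culture at OD595 0.01, or 55 µl for S. pneumoniae. TSB, LB Lennox or CY served as media at 37 °C. OD595 was taken every 30 min for 14 h and corrected by subtracting the first reading. Fitness is the optical density at stationary-phase entry divided by the robust mean of no-drug controls, capped at 1.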

[2] = tested on: S. aureus DSM 20231
Procedure, shortened: as §1

[3] = tested on: B. subtilis 168
Procedure, shortened: as §1

[4] = tested on: S. aureus Newman
Procedure, shortened: as §1

Cc1cc(NS(=O)(=O)c2ccc(N)cc2)no1 [Sulfamethoxazol] + CN[C@@H]1[C@H](O)[C@H](NC)[C@H]2O[C@@]3(O)C(=O)C[C@@H](C)O[C@H]3O[C@@H]2[C@H]1O [Spectinomycin]
fitness
Details | first compound 1 µg/mL | first compound 2 µg/mL | first compound 4 µg/mL
[1], partner 4 µg/mL | 0.954 | 0.889 | 0.924
[1], partner 8 µg/mL | 0.935 | 0.899 | 0.922
[2], partner 4 µg/mL | 0.897 | 0.896 | 0.994
[2], partner 8 µg/mL | 0.822 | 0.861 | 0.957
[2], partner 16 µg/mL | 0.763 | 0.812 | 0.849
[3], partner 2 µg/mL | 0.926 | 0.853 | 0.941
[3], partner 4 µg/mL | 0.92 | 0.861 | 0.959
[3], partner 8 µg/mL | 0.96 | 0.891 | 0.891
[4], partner 4 µg/mL | 0.972 | 0.964 | 0.983
[4], partner 8 µg/mL | 0.986 | 0.985 | 0.967
[4], partner 16 µg/mL | 0.877 | 0.927 | 0.925

one replicate
Details | fitness
[1], first compound 1 µg/mL, partner 16 µg/mL | 0.691
[1], first compound 2 µg/mL, partner 16 µg/mL | 0.634
[1], first compound 4 µg/mL, partner 16 µg/mL | 0.702
[2], first compound 1 µg/mL, partner 32 µg/mL | 0.826
[2], first compound 1 µg/mL, partner 64 µg/mL | 0.08
[2], first compound 2 µg/mL, partner 32 µg/mL | 0.796
[2], first compound 2 µg/mL, partner 64 µg/mL | 0.0783
[2], first compound 4 µg/mL, partner 32 µg/mL | 0.802
[2], first compound 4 µg/mL, partner 64 µg/mL | 0.0708
[3], first compound 0.5 µg/mL, partner 2 µg/mL | 0.916
[3], first compound 0.5 µg/mL, partner 4 µg/mL | 0.882
[3], first compound 0.5 µg/mL, partner 8 µg/mL | 0.851
[4], first compound 1 µg/mL, partner 32 µg/mL | 0.589
[4], first compound 1 µg/mL, partner 64 µg/mL | 0.0829
[4], first compound 2 µg/mL, partner 32 µg/mL | 0.577
[4], first compound 2 µg/mL, partner 64 µg/mL | 0.0759
[4], first compound 4 µg/mL, partner 32 µg/mL | 0.581
[4], first compound 4 µg/mL, partner 64 µg/mL | 0.0529
[4], first compound 8 µg/mL, partner 4 µg/mL | ≥ 1
[4], first compound 8 µg/mL, partner 8 µg/mL | 0.959
[4], first compound 8 µg/mL, partner 16 µg/mL | 0.905

Cc1cc(NS(=O)(=O)c2ccc(N)cc2)no1 [Sulfamethoxazol] + CN[C@@H]1[C@H](O[C@H]2[C@H](O[C@H]3[C@H](O)[C@@H](O)[C@H](N=C(N)N)[C@@H](O)[C@@H]3N=C(N)N)O[C@@H](C)[C@]2(O)C=O)O[C@@H](CO)[C@H](O)[C@H]1O [Streptomycin]
fitness
Details | first compound 1 µg/mL | first compound 2 µg/mL | first compound 4 µg/mL
[1], partner 2 µg/mL | 0.962 | 0.962 | 0.932
[1], partner 4 µg/mL | 0.932 | 0.932 | 0.944
[1], partner 8 µg/mL | 0.877 | 0.908 | 0.95
[3], partner 2 µg/mL | 0.903 | 0.9 | 0.888
[3], partner 4 µg/mL | – | – | 0.153
[3], partner 8 µg/mL | 0.045 | 0.0312 | 0.0185
[4], partner 1 µg/mL | 0.98 | 0.939 | 0.956
[4], partner 2 µg/mL | 0.968 | 0.999 | 0.93

one replicate
Details | fitness
[1], first compound 1 µg/mL, partner 16 µg/mL | 0.763
[1], first compound 2 µg/mL, partner 16 µg/mL | 0.78
[1], first compound 4 µg/mL, partner 16 µg/mL | 0.79
[3], first compound 0.5 µg/mL, partner 2 µg/mL | ≥ 1
[3], first compound 0.5 µg/mL, partner 4 µg/mL | ≥ 1
[3], first compound 0.5 µg/mL, partner 8 µg/mL | 0.0922
[4], first compound 2 µg/mL, partner 8 µg/mL | 0.913
[4], first compound 4 µg/mL, partner 8 µg/mL | 0.876
[4], first compound 8 µg/mL, partner 2 µg/mL | 0.973
[4], first compound 8 µg/mL, partner 4 µg/mL | 0.964
[4], first compound 8 µg/mL, partner 8 µg/mL | 0.897
